Experimental data as given in PubChem BioAssay (NCI).
“And” between values parts separate entries of the source, which are not always exact repeats. Equal entries are not always repeated.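 Protocol summary: plate cells (96-well), add compound at 5 concentrations, incubate 48 h, interpolate endpoints linearly. Here, GI50 denotes the concentration required for 50% inhibition of growth. TGI is the concentration that stops growth completely.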

How the values were obtained:
Assay in all cases: growth of human tumour cells (NCI), 48 h
786-0 renal = system: 786-0 renal
SK-OV-3 ovarian = system: SK-OV-3 ovarian
T-47D breast = system: T-47D breast
NCI-H522 lung = system: NCI-H522 lung
HOP-62 NSCLC = system: HOP-62 NSCLC
CCRF-CEM leukemia = system: CCRF-CEM leukemia
HCT-15 colon = system: HCT-15 colon
UACC-257 melanoma = system: UACC-257 melanoma
SNB-75 CNS = system: SNB-75 CNS
SN12C renal = system: SN12C renal

| Compound | GI50 (786-0 renal) | TGI (786-0 renal) | TGI (SK-OV-3 ovarian) | TGI (T-47D breast) | TGI (NCI-H522 lung) | GI50 (HOP-62 NSCLC) | TGI (HOP-62 NSCLC) | TGI (CCRF-CEM leukemia) | GI50 (HCT-15 colon) | TGI (HCT-15 colon) | GI50 (UACC-257 melanoma) | TGI (UACC-257 melanoma) | TGI (SNB-75 CNS) | GI50 (SN12C renal) | TGI (SN12C renal) | GI50 (SK-OV-3 ovarian) | GI50 (T-47D breast) | GI50 (NCI-H522 lung) | GI50 (CCRF-CEM leukemia) | GI50 (SNB-75 CNS) |
| --- | --- | --- | --- | --- | --- | --- | --- | --- | --- | --- | --- | --- | --- | --- | --- | --- | --- | --- | --- | --- |
| COc1cc(NC(C)CCCN)c2ncccc2c1 (stereo not given) | 43.8 µM and > 88.2 µM | > 100 µM | > 100 µM | > 53.2 µM | > 100 µM | 43.6 µM and > 91.6 µM | > 100 µM | > 100 µM | 41.9 µM and 98.4 µM | > 100 µM | 11.3 µM and 30.2 µM | 27.2 µM and 54.5 µM | > 100 µM and 80.5 µM | 41.4 µM and > 84.4 µM | > 100 µM |  |  |  |  |  |
| COc1ccc2c(=O)cc(-c3ccncc3)oc2c1OC |  | > 100 µM | > 100 µM | > 100 µM | > 100 µM |  | > 100 µM | 71.1 µM |  | > 100 µM |  | > 100 µM | 41 µM |  | > 100 µM |  |  |  |  |  |
| C=CCC1(O)c2ccccc2C(=O)c2c(NCCN(CC(=O)OCC)CC(=O)OCC)cccc21 (stereo not given) | > 100 µM | > 100 µM | > 100 µM | > 100 µM | > 100 µM | > 100 µM | > 100 µM | > 100 µM | 69.5 µM | > 100 µM | > 100 µM | > 100 µM | > 100 µM | 57 µM | > 100 µM | > 100 µM | 80.6 µM | > 100 µM | > 100 µM | > 100 µM |
| CC1OC(n2c3ccccc3c3c4c(c5c6ccccc6[nH]c5c32)C(=O)N(CCN[C@@H]2CCC[C@H]2N)C4=O)CC(O)C1O (stereo not given in full) | 2.35 µM | 9.9 µM | 9.09 µM | 6.46 µM | 5.26 µM | 1.74 µM | 7.24 µM | 6.27 µM | 5.88 µM | 12.6 µM | 3.73 µM | 10.5 µM | 5.68 µM | 1.48 µM | 6.5 µM | 2.51 µM | 1.04 µM | 0.962 µM | 1.25 µM | 0.918 µM |
| CC1CC2OC(=O)C(C)C2CC2(C)C(OC3OC(CO)C(O)C(O)C3O)OCCC12 (stereo not given) |  | > 100 µM | > 100 µM | > 100 µM | > 100 µM |  | > 100 µM | > 100 µM |  | > 100 µM |  | > 100 µM | > 100 µM |  | > 100 µM |  |  |  |  |  |
| Cc1cc(NCCN(C(C)C)C(C)C)nc(/N=C(\N)Nc2ccc(Cl)c(C(F)(F)F)c2)n1 | 0.736 µM | 2.06 µM | 2.55 µM | 0.361 µM | 0.47 µM | 0.748 µM | 2 µM | 1.47 µM | 0.276 µM | 0.913 µM | 0.187 µM | 0.337 µM | 1.03 µM | 1.34 µM | 2.87 µM | 1.26 µM | 0.183 µM | 0.206 µM | 0.335 µM | 0.449 µM |
| COc1cccc(C2=C(c3c(C)n(C)c4ccccc34)C(=O)NC2=O)c1 | > 25 µM | > 25 µM | > 25 µM | > 25 µM | > 25 µM | > 25 µM | > 25 µM | > 25 µM | 12.1 µM | > 25 µM | > 25 µM | > 25 µM | > 25 µM | > 25 µM | > 25 µM | > 25 µM | 8.83 µM | 15.3 µM | > 25 µM | 6.63 µM |
| CN[C@H](C#Cc1c(F)ccc2c1/C(=C/c1[nH]ccc1OC)C(=O)N2)CO | 0.462 µM | 4.18 µM | 8.12 µM | 13.6 µM | 2.45 µM | 0.628 µM | 2.42 µM | 1.83 µM | 0.117 µM | 3.02 µM | 1.52 µM | 4.93 µM | 3.88 µM | 0.2 µM | 25 µM | 0.117 µM | 2.27 µM | 0.659 µM | 0.349 µM | 0.0777 µM |
| O=[N+]([O-])c1ccc2c(c1)Cc1cc(N=Cc3ccc4c(c3)OCO4)ccc1-2 |  | > 100 µM | > 100 µM | > 100 µM | > 100 µM |  | > 100 µM | > 100 µM |  | > 100 µM |  | > 100 µM | > 100 µM |  | > 100 µM |  |  |  |  |  |
